Consider 1 molecule from paper PMC6515479, “An Investigation on Glucuronidation Metabolite Identification, Isozyme Contribution, and Species Differences of GL-V9 In Vitro and In Vivo” (Molecules, 2019).

Holding throughout (format): in vitro ADME
Data set [1] can be described thus: Enzyme kinetics of GL-V9 glucuronidation in monkey liver microsomes (MLMs). To be noted: monkey, liver microsomes, pH 7.4; formation of 5-O-glucuronide GL-V9; MLMs, protein 0.1 mg/mL; mean ± SD, n = 3. The procedure:
(§1) The composition of the incubation system (200 μL) contained liver microsomes of different species (0.1 mg protein/mL), 5 mM saccharolactone (D-saccharic acid 1,4-lactone monohydrate), 10 mM MgCl2, alamethicin (50 μg/mg protein), Tris-HCl buffer (50 mM, pH 7.4) and GL-V9 (1 μM). After 5 min of preincubation at 37 °C, UDPGA (5 mM) was added to initiate the phase II reaction. Control incubation samples were performed without UDPGA or without substrates (GL-V9). The reaction was terminated by addition of ice-cold methanol (three volumes) after incubation for 1 h at 37 °C. Samples were vortexed, centrifuged at 21,500× g for 10 min and then stored at 4 °C until HPLC-UV-TripleTOF analysis. To confirm that these metabolites are conjugates resulting from glucuronidation reaction, enzymatic hydrolysis of samples was processed. β-glucuronidase (100 KU, Sigma) was added and the hydrolysis was performed overnight at 37 °C. The control samples were carried out without β-glucuronidase under the same condition.
(§2) Enzyme kinetics experiments were carried out in triplicate among five different species, including monkey, beagle dog, rat, mouse, and human. The reaction system and operations are as same as described in Section 4.3. The solutions of GL-V9 were selected over a range of concentrations (0.05, 0.2, 0.5, 1, 2, 5, 10, 20 μM). According to the different metabolic capacity, the protein concentration of liver microsomes of different species is different as shown in Table 1.
(§3) Rates of the glucuronidation of GL-V9 were described as amounts of glucuronides formed per minute per milligram (pmol/min/mg). The calculation model of kinetic parameters was selected by the profile of Eadie-Hofstee plots. It often includes three possibilities: (1) the Eadie-Hofstee plot was linear, the formation rates of glucuronides (V) at different substrate concentrations (C) were fit to the standard Michaelis-Menten calculation of GraphPad Prism (version 6.02, GraphPad Software Inc., Guildford, Surrey, UK); (2) the Eadie-Hofstee plot was atypical kinetic-autoactivation, the rates and concentration were fit with the allosteric sigmoidal function of GraphPad Prism; (3) the Eadie-Hofstee plot was atypical kinetic-biphasic, the rates and concentration were fit with the […] of GraphPad Prism.
A general note: Liver microsomes are vesicles of endoplasmic reticulum, rich in cytochrome P450 enzymes.

Data set [2] deals with monkey liver microsomes (MLMs). The description is as above. The protocol:
as §1, §2, §3

Data set [3] is described as follows: Enzyme kinetics of GL-V9 glucuronidation in rat liver microsomes (RLMs). As to conditions: rat, liver microsomes, pH 7.4, formation of 5-O-glucuronide GL-V9, protein 0.1 mg/mL, mean ± SD, n = 3. The protocol: as §1
(§4) Enzyme kinetics experiments were carried out in triplicate among five different species, including monkey, beagle dog, rat, mouse, and human. The reaction system and operations are as same as described in Section 4.3. The solutions of GL-V9 were selected over a range of concentrations (0.05, 0.2, 0.5, 1, 2, 5, 10, 20 μM). […]

Data set [4] has as its system rat liver microsomes (RLMs). The data set is described as above. To be noted: formation of 5-O-glucuronide GL-V9, protein 0.1 mg/mL, mean ± SD, n = 3. The protocol: as §1, §4
Data set [5] is described as follows: Enzyme kinetics of GL-V9 glucuronidation in human liver microsomes (HLMs). To be noted: human, liver microsomes, pH 7.4, formation of 5-O-glucuronide GL-V9, protein 0.075 mg/mL, mean ± SD, n = 3. The protocol: as §1, §4
Data set [6] has as its system human liver microsomes (HLMs). The data set is described as above. To be noted: formation of 5-O-glucuronide GL-V9, protein 0.075 mg/mL, mean ± SD, n = 3. The procedure:
as §1, §4

For another data set, the target named is T1, rUGT1A4 (Homo sapiens, UniProt P22310).
T1 construct: purchased Corning (Woburn, MA, USA)
T1 sequence (P22310 29-534): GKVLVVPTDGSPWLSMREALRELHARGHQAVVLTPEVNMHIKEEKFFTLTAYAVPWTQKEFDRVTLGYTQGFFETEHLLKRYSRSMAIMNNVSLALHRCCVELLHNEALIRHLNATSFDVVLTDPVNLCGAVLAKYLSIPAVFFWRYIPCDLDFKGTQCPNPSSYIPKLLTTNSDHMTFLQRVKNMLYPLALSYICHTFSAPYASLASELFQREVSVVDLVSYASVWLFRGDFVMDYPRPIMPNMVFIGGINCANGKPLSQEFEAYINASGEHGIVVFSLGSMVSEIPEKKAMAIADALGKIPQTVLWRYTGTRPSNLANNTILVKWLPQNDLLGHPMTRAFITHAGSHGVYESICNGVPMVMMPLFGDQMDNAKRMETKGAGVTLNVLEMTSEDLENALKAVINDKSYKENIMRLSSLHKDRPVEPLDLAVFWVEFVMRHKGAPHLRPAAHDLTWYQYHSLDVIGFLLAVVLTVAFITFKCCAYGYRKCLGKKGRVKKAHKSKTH
As to the kind of experiment: UGT phenotyping of GL-V9 glucuronidation, rUGT1A4. As to conditions: GL-V9 0.5, 1, 5 μM, 37 °C, 1 h. The procedure:
as §1
(§5) Twelve human recombinant UGT isoforms (rUGT1A1, rUGT1A3, rUGT1A4, rUGT1A6, rUGT1A7, rUGT1A8, rUGT1A9, rUGT1A10, rUGT2B4, rUGT2B7, rUGT2B15, and rUGT2B17) were employed to identify the main UGT enzyme(s) responsible for glucuronidation of GL-V9 under mixture conditions as described in Section 4.3. […]

Another data set deals with T2, rUGT1A6 (Homo sapiens, UniProt P19224).
T2 construct: purchased Corning (Woburn, MA, USA)
T2 sequence (P19224 27-532): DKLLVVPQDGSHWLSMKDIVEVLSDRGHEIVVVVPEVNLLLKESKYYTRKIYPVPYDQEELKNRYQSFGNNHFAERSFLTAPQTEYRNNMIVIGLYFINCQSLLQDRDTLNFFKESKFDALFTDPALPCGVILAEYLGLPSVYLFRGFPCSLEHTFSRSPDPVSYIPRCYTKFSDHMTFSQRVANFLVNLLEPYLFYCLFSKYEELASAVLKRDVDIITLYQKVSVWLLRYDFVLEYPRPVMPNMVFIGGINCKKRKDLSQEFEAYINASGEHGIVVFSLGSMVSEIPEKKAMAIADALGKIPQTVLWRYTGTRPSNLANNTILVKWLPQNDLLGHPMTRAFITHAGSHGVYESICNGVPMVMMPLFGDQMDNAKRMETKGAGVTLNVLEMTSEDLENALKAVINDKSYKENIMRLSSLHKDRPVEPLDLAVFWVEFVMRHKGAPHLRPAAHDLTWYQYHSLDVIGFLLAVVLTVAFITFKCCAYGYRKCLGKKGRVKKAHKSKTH
As to the kind of experiment: UGT phenotyping of GL-V9 glucuronidation, rUGT1A6. To be noted: GL-V9 0.5, 1, 5 μM, 37 °C, 1 h. The procedure: as §1, §5

For orientation: Km means the concentration of substrate that gives half-maximal velocity. Usually Vmax stands for the top rate of the reaction or transport when substrate is in excess.

As for `COc1c(OCCCCN2CCCC2)cc(O)c2c(=O)cc(-c3ccccc3)oc12` [GL-V9], the Km at 1 h came out at 11.2 ± 0.47 µM in data set [1], 6.54 ± 0.33 µM in data set [3] and 11.2 ± 0.66 µM in data set [5]. Also, in data set [2] (MLMs versus DLMs), the “Clint in MLMs relative to DLMs” value is “approximately 9 fold”. Moreover, in data set [2] (MLMs versus DLMs), the “Glucuronidation rate in MLMs relative to DLMs” value was over 8 fold. The maximal velocity (Vmax) was found to be 182.5 ± 4.92 pmol/min/mg in data set [2] (formation of 5-O-glucuronide GL-V9, MLMs, protein 0.1 mg/mL, mean ± SD, n = 3); 32.72 ± 1.45 pmol/min/mg in data set [4]; 88.49 ± 4.21 pmol/min/mg in data set [6]. The “Metabolism rate (glucuronidation)” value on rUGT1A4 and at rUGT1A6 was “too low to be biologically relevant” in each case.
